Data: patent US20260132132A1, “3A,4,5,6-TETRAHYDRO-1 H-PYRAZOLO[3,4-C]PYRIDIN-7(7AH)-ONE DERIVATIVES AS FACTOR XIIA INHIBITORS” (KALVISTA PHARMACEUTICALS LIMITED, priority 2022, published 2026)
pIC50: −log10 of the molar value.

Legend:
FXa = FXa (Homo sapiens, UniProt P00742); assay: Related protease inhibition: FXa, fluorogenic substrate; assay type: biochemical; settings: fluorogenic substrate at Km, 25° C.; H1-H3 = % activity at 40 μM
Method: Human serine protease enzyme Plasma Kallikrein, KLK1, FXa, Plasmin, Thrombin and Trypsin were assayed for enzymatic activity using an appropriate fluorogenic substrate at Km concentration, FXIa at fixed substrate concentration of 100 μM and various concentrations of the test compound.

[1] = molecular target: T1, Human Factor XIIa (hFXIIa) (Homo sapiens, UniProt P00748); assay: Determination of Human Factor XIIa (hFXIIa) inhibition, fluorogenic substrate IC50 assay; assay type: biochemical; settings: fluorogenic substrate H-DPro-Phe-Arg-AFC at Km, 25° C., read-out: Human FXIIa IC50
T1 construct: purchased Enzyme Research Laboratories
T1 sequence (P00748 373-615 limits assumed): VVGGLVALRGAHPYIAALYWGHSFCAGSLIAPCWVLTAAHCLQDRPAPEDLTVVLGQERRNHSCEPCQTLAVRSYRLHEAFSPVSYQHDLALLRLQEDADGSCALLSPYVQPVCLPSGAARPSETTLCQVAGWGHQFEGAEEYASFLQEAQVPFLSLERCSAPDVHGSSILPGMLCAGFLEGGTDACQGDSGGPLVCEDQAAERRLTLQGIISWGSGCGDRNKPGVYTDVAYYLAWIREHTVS
T1 sequence (P00748 20-372 partner limits assumed): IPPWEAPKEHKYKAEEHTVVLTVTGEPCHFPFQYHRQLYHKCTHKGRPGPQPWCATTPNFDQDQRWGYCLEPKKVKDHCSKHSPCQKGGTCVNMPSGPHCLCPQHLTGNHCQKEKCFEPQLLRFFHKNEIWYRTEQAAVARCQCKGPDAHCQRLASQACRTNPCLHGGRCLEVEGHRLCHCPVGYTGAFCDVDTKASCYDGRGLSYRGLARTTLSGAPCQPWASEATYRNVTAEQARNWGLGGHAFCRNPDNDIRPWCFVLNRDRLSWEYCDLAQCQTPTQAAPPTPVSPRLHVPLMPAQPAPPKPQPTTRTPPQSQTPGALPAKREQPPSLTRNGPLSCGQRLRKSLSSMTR
Method: Determination of Human Factor XIIa (hFXIIa) inhibition
The Km for the cleavage of the substrate by hFXIIa was determined by standard transformation of the Michaelis-Menten equation, with subsequent inhibition assays performed at substrate Km concentration.

FXa, sequence (P00742 235-488 limits assumed): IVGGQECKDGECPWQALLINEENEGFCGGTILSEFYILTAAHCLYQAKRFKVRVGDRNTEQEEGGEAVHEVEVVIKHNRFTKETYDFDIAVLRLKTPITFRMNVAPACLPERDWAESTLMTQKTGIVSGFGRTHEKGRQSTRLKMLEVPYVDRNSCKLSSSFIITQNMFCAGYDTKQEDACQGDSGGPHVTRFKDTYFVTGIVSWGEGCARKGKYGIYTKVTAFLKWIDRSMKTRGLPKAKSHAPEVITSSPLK
FXa, sequence (P00742 41-179 partner limits assumed): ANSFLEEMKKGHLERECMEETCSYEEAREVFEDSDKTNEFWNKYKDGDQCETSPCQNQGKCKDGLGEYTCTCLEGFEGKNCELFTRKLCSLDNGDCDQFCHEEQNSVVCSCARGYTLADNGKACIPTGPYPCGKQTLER

SMILES | pIC50 (FXa) | pIC50 [1]
CCNC(=O)c1nn(-c2cccc(Cl)c2)c2c1CCN(c1cccc(-n3ccn(C)c3=O)c1)C2=O [Example 1399, 1-(3-chlorophenyl)-N-ethyl-6-(3-(3-methyl-2-oxo-2,3-dihydro-1H-imidazol-1-yl)phenyl)-7-oxo-4,5,6,7-tetrahydro-1H-pyrazolo[3,4-c]pyridine-3-carboxamide] | < 4.40 | 5.52 to 6.00
CCNC(=O)c1nn(-c2cccc(Cl)c2)c2c1CCN(c1cccc(N3CCC4(CC4)C3=O)c1)C2=O [Example 1400, 1-(3-chlorophenyl)-N-ethyl-7-oxo-6-(3-(4-oxo-5-azaspiro[2.4]heptan-5-yl)phenyl)-4,5,6,7-tetrahydro-1H-pyrazolo[3,4-c]pyridine-3-carboxamide] | < 4.40 | 5.52 to 6.00
CCNC(=O)c1nn(-c2cccc(Cl)c2)c2c1CCN(c1ccc(OC)c(N3CCCC3=O)c1)C2=O [Example 1401, 1-(3-chlorophenyl)-N-ethyl-6-(4-methoxy-3-(2-oxopyrrolidin-1-yl)phenyl)-7-oxo-4,5,6,7-tetrahydro-1H-pyrazolo[3,4-c]pyridine-3-carboxamide] | < 4.40 | 5.52 to 6.00
CCNC(=O)c1nn(-c2cccc(Cl)c2)c2c1CCN(c1ccc(OC)c(N3C(=O)CC4CC43)c1)C2=O (stereo not shown) [Example 1402, 1-(3-chlorophenyl)-N-ethyl-6-(4-methoxy-3-(3-oxo-2-azabicyclo[3.1.0]hexan-2-yl)phenyl)-7-oxo-4,5,6,7-tetrahydro-1H-pyrazolo[3,4-c]pyridine-3-carboxamide] | < 4.40 | 5.00 to 5.52
CN1CCc2ccc(N3CCc4c(CNS(C)(=O)=O)nn(-c5cccc(Cl)c5)c4C3=O)cc2C1=O [Example 1403, N-((1-(3-chlorophenyl)-6-(2-methyl-1-oxo-1,2,3,4-tetrahydroisoquinolin-7-yl)-7-oxo-4,5,6,7-tetrahydro-1H-pyrazolo[3,4-c]pyridin-3-yl)methyl)methanesulfonamide] | 5.00 to 5.52 | 5.52 to 6.00
CN1CCc2ccc(N3CCc4c(C(=O)N[C@@H](CO)C5CC5)nn(-c5cccc(Cl)c5)c4C3=O)cc2C1=O [Example 1404, (R)-1-(3-chlorophenyl)-N-(1-cyclopropyl-2-hydroxyethyl)-6-(2-methyl-1-oxo-1,2,3,4-tetrahydroisoquinolin-7-yl)-7-oxo-4,5,6,7-tetrahydro-1H-pyrazolo[3,4-c]pyridine-3-carboxamide] | < 4.40 | 6.52 to 7.00
Cc1ccncc1CNC(=O)c1nn(-c2cccc(Cl)c2F)c2c1CCN(c1ccc3c(c1)CN(CCO)CC3)C2=O [Example 2002, 1-(3-Chloro-2-fluorophenyl)-6-(2-(2-hydroxyethyl)-1,2,3,4-tetrahydroisoquinolin-7-yl)-N-((4-methylpyridin-3-yl)methyl)-7-oxo-4,5,6,7-tetrahydro-1H-pyrazolo[3,4-c]pyridine-3-carboxamide] | < 4.40 | 7.00 to 8.00
CN1CCc2ccc(N3CCc4c(C(=O)NCC5CC5)nn(-c5cccc(Cl)c5F)c4C3=O)cc2C1=O [Example 2004, 1-(3-chloro-2-fluorophenyl)-N-(cyclopropylmethyl)-6-(2-methyl-1-oxo-1,2,3,4-tetrahydroisoquinolin-7-yl)-7-oxo-4,5,6,7-tetrahydro-1H-pyrazolo[3,4-c]pyridine-3-carboxamide] | < 4.40 | 6.52 to 7.00
CN1CCc2ccc(N3CCc4c(C(=O)NCC5CC5)nn(-c5cccc(C#N)c5)c4C3=O)cc2C1=O [Example 2005, 1-(3-cyanophenyl)-N-(cyclopropylmethyl)-6-(2-methyl-1-oxo-1,2,3,4-tetrahydroisoquinolin-7-yl)-7-oxo-4,5,6,7-tetrahydro-1H-pyrazolo[3,4-c]pyridine-3-carboxamide] | < 4.40 | 6.00 to 6.52
CN1CCc2ccc(N3CCc4c(C(=O)NCC5CC5)nn(-c5cccc(C(N)=O)c5)c4C3=O)cc2C1=O [Example 2006, 1-(3-carbamoylphenyl)-N-(cyclopropylmethyl)-6-(2-methyl-1-oxo-1,2,3,4-tetrahydroisoquinolin-7-yl)-7-oxo-4,5,6,7-tetrahydro-1H-pyrazolo[3,4-c]pyridine-3-carboxamide] | < 4.40 | 4.40 to 5.00
Cc1ccc(-n2nc(C(=O)NCc3cnccc3C)c3c2C(=O)N(c2ccc4c(c2)CN(CCO)CC4)CC3)cc1Cl [Example 2007, 1-(3-chloro-4-methylphenyl)-6-(2-(2-hydroxyethyl)-1,2,3,4-tetrahydroisoquinolin-7-yl)-N-((4-methylpyridin-3-yl)methyl)-7-oxo-4,5,6,7-tetrahydro-1H-pyrazolo[3,4-c]pyridine-3-carboxamide] | < 4.40 | 6.52 to 7.00
Cc1cccc(-n2nc(C(=O)NCc3cnccc3C)c3c2C(=O)N(c2ccc4c(c2)CN(CCO)CC4)CC3)c1 [Example 2008, 6-(2-(2-hydroxyethyl)-1,2,3,4-tetrahydroisoquinolin-7-yl)-N-((4-methylpyridin-3-yl)methyl)-7-oxo-1-(m-tolyl)-4,5,6,7-tetrahydro-1H-pyrazolo[3,4-c]pyridine-3-carboxamide] | 5.00 to 5.52 | 7.00 to 8.00
Cc1ccncc1CNC(=O)c1nn(-c2cccc(C(F)(F)F)c2)c2c1CCN(c1ccc3c(c1)CN(CCO)CC3)C2=O [Example 2009, 6-(2-(2-hydroxyethyl)-1,2,3,4-tetrahydroisoquinolin-7-yl)-N-((4-methylpyridin-3-yl)methyl)-7-oxo-1-(3-(trifluoromethyl)phenyl)-4,5,6,7-tetrahydro-1H-pyrazolo[3,4-c]pyridine-3-carboxamide] | < 4.40 | 6.52 to 7.00
Cc1ccncc1CNC(=O)c1nn(-c2cccc(C#N)c2)c2c1CCN(c1ccc3c(c1)CN(CCO)CC3)C2=O [Example 2010, 1-(3-cyanophenyl)-6-(2-(2-hydroxyethyl)-1,2,3,4-tetrahydroisoquinolin-7-yl)-N-((4-methylpyridin-3-yl)methyl)-7-oxo-4,5,6,7-tetrahydro-1H-pyrazolo[3,4-c]pyridine-3-carboxamide] | < 4.40 | 6.52 to 7.00
Cc1cc(CNC(=O)c2nn(-c3cccc(C#N)c3)c3c2CCN(c2ccc4c(c2)C(=O)N(C)CC4)C3=O)nn1C [Example 2012, 1-(3-cyanophenyl)-N-((1,5-dimethyl-1H-pyrazol-3-yl)methyl)-6-(2-methyl-1-oxo-1,2,3,4-tetrahydroisoquinolin-7-yl)-7-oxo-4,5,6,7-tetrahydro-1H-pyrazolo[3,4-c]pyridine-3-carboxamide] | < 4.40 | 6.00 to 6.52
CN1CCc2ccc(N3CCc4c(C(=O)NCC5CC5)nn(-c5cc(Cl)cc(C#N)c5)c4C3=O)cc2C1=O [Example 2013, 1-(3-chloro-5-cyanophenyl)-N-(cyclopropylmethyl)-6-(2-methyl-1-oxo-1,2,3,4-tetrahydroisoquinolin-7-yl)-7-oxo-4,5,6,7-tetrahydro-1H-pyrazolo[3,4-c]pyridine-3-carboxamide] | < 4.40 | 5.00 to 5.52
CN1CCc2ccc(N3CCc4c(C(=O)NCC5CC5)nn(-c5cccc(Cl)n5)c4C3=O)cc2C1=O [Example 2020, 1-(6-Chloropyridin-2-yl)-N-(cyclopropylmethyl)-6-(2-methyl-1-oxo-1,2,3,4-tetrahydroisoquinolin-7-yl)-7-oxo-4,5,6,7-tetrahydro-1H-pyrazolo[3,4-c]pyridine-3-carboxamide] | < 4.40 | 6.52 to 7.00
